Laboratory results published in patent publication US20240108637A1, “EPITE[…] AND/OR A STEROID SULFATASE INHIBITOR FOR USE IN TREATING OR IMPROVING AGE RELATED COGNITIVE IMPAIRMENT” (U[…] DE OLAVIDE, priority 2020, published 2024).
Entries after “also recorded” stand apart in the source; their conditions may differ.

Experiments:
[1] = tested on: polyglutamine repeats fused to YFP (Q40 background, strain AM141); assay: Huntington neurodegenerative model: number of polyglutamine aggregates; format: in vivo, C. elegans; settings: 1 μg/ml, 5-day old worms
[2] = tested on: daf-2(e1370); assay: Developmental arrest (dauer / L1) at 25° C.; format: in vivo, C. elegans; settings: daf-2(e1370) background
Method: Worms were growth at 16° C. until L4, then shifted to 25° C. considering this Day 0 of adulthood. The pumping was counted under the Leica stereoscope at 100× magnification for 30 seconds. Data display from two independent biological assays (n=30 per day). Two-tailed Mann-Whitney t-test, ***p=0.0006. e Thrashing in sul-2(gk187) is similar to wild type but is slightly lower in sul-2 (pv17) at 25° C. on day 1 of adulthood. On day 6 at 25° of adulthood, the trashing on sul-2(gk187) is lower than wild type and sul-(pv17), with no differences among these last strains. The population of sul-2(gk17) at day 6 seems to distribute into two different populations, one with almost no thrashing and other with values similar to wild type a sul-2(pv17). […] In this condition, all animals from daf-2(e1370); sul-2(pv17) double mutants arrest at L1 stage. Similarly, more than 50% of animals arrest in L1 stage in daf-2(m577); sul-2(pv17) background, while none of the single mutants show this phenotype. i Example of sul-2(pv17) larvae, dauer larval arrest of daf-2(e1370) or L1 arrest of daf-2(e1370); sul-2 (pv17) and daf-2(e1370); sul-2(gk187) at 25° C. Animals were grown up to L4 at 16° C., then shifted at 25° C., progeny were scored or imaged after 72 hours. Photographs were taken in a Leica scope.

Compound: NS(=O)(=O)Oc1ccc2c3c(c(=O)oc2c1)CCCCC3 [STX64]
- number of polyglutamine aggregates [1]: aggregates are reduced; also recorded: reduced the number of aggregates
- L1 arrest [2]: phenocopies other sul-2 mutant phenotypes; also recorded: mainly arrests in L1
- L1 arrest ([2]; listed as STX 64): increase of L1 arrest
